Earlier results on one molecule are cited in US8642030B2, “Compositions containing coenzyme Q-10 and dihydrolipoic acid” (EPC Europe GmbH, priority 2006, dated 2014).

The conditions of the series: cited from earlier work.

The structures appear in SMILES notation.

As for `COC1=C(OC)C(=O)C(C/C=C(\C)CC/C=C(\C)CC/C=C(\C)CC/C=C(\C)CC/C=C(\C)CC/C=C(\C)CC/C=C(\C)CC/C=C(\C)CC/C=C(\C)CCC=C(C)C)=C(C)C1=O` [CoQ-10], the “solubility in most hydrophilic solvents such as water” value is listed as “sparingly soluble”.
